Results as given in US9302999B2, “Substituted triazoles as herbicides” (E. I. DU PONT DE NEMOURS AND COMPANY, priority 2012, dated 2016).

Experiments:
Format in all cases: in vivo
[1] = test system: pigweed (Amaranthus retroflexus); test: Test A pre-/postemergence: pigweed
Summary of the method: (§1)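 Compounds, formulated with surfactant in non-phytotoxic solvent, were applied as a directed soil spray preemergence and as postemergence sprays to 2–10 cm, one- to two-leaf seedlings grown in loam soil blended with sand; visual injury, 0–100, assessed ~10 days post-treatment against untreated controls.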

[2] = test system: barnyardgrass (Echinochloa crus-galli); test: Test A pre-/postemergence: barnyardgrass
Summary of the method: as §1

[3] = test system: morningglory (Ipomoea spp.); test: Test A pre-/postemergence: morningglory
Summary of the method: as §1

[4] = test system: sedge, umbrella (small-flower umbrella sedge Cyperus difformis); test: Test B flooded paddy: sedge, umbrella; conditions: Flood; 250 g ai/ha; applied to paddy water at 2-leaf stage; visually evaluated after 13 to 15 days
Summary of the method: (§2)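 Paddy-water application: seedlings at 2-leaf stage, flood depth 3 cm maintained for the test duration. Evaluation after 13–15 days in the greenhouse by eye relative to controls; 0–100 scale.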

[5] = test system: barnyardgrass (Echinochloa crus-galli); test: Test B flooded paddy: barnyardgrass; conditions: Flood; 250 g ai/ha; applied to paddy water at 2-leaf stage; visually evaluated after 13 to 15 days
Summary of the method: as §2

[6] = test system: velvetleaf (Abutilon theophrasti); test: Test A pre-/postemergence: velvetleaf
Summary of the method: as §1

[7] = test system: ducksalad (Heteranthera limosa); test: Test B flooded paddy: ducksalad; conditions: Flood; 250 g ai/ha; applied to paddy water at 2-leaf stage; visually evaluated after 13 to 15 days
Summary of the method: as §2

[8] = test system: wheat (Triticum aestivum); test: Test A pre-/postemergence: wheat
Summary of the method: as §1

[9] = test system: foxtail, giant (giant foxtail, Setaria faberii); test: Test A pre-/postemergence: foxtail, giant
Summary of the method: as §1

corn (Zea mays) = test: Test A pre-/postemergence: corn
Summary of the method: as §1

rice (Oryza sativa) = test: Test B flooded paddy: rice; conditions: Flood; 250 g ai/ha; applied to paddy water at 2-leaf stage; visually evaluated after 13 to 15 days
Summary of the method: as §2

[10] = test system: crabgrass, large (large crabgrass, Digitaria sanguinalis); test: Test A pre-/postemergence: crabgrass, large
Summary of the method: as §1

[11] = Postemergence, 125 g ai/ha, 0 to 100 scale, 0 is no effect, 100 is complete control
[12] = Postemergence, 500 g ai/ha, visual rating on 0 to 100 scale (0 no effect, 100 complete control), approximately ten days
[13] = Preemergence, 125 g ai/ha, 0 to 100 scale (0 no effect, 100 complete control)
[14] = Preemergence, 500 g ai/ha, 0 to 100 scale, 0 is no effect, 100 is complete control
[15] = Preemergence, 125 g ai/ha, 0 to 100 scale where 0 is no effect and 100 is complete control
[16] = Preemergence, 500 g ai/ha, 0 to 100 scale (0 no effect, 100 complete control)

Compound | Pigweed plant response rating [1, 12] | Barnyardgrass plant response rating [2, 11] | Barnyardgrass plant response rating [2, 12] | Morningglory plant response rating [3, 12] | Plant response rating, Sedge, Umbrella (0 to 100 scale, 0 is no effect, 100 is complete control) [4] | Plant response rating, Barnyardgrass (0 to 100 scale, 0 is no effect, 100 is complete control) [5] | Velvetleaf plant response rating [6, 12] | Plant response rating, Ducksalad (0 to 100 scale, 0 is no effect, 100 is complete control) [7] | Wheat plant response rating [8, 12] | Foxtail, Giant plant response rating [9, 11] | Foxtail, Giant plant response rating [9, 12] | Corn plant response rating (corn (Zea mays); [11]) | Corn plant response rating (corn (Zea mays); [12]) | Plant response rating, Rice (0 to 100 scale, 0 is no effect, 100 is complete control) (rice (Oryza sativa)) | Crabgrass, Large plant response rating [10, 11] | Crabgrass, Large plant response rating [10, 12] | Plant response rating, Pigweed [1, 11] | Plant response rating, Pigweed [1, 15] | Plant response rating, Pigweed [1, 16] | Plant response rating, Barnyardgrass [2, 15] | further results
Cc1cc(Oc2nn(-c3ccc(F)cc3)nc2C)ccc1F [Compound 86] | 0 | 0 | 0 | 0 | 50 | 0 | 0 | 0 | 0 | 0 | 0 | 0 | 0 | 0 | 0 | 0 | – | – | – | – | Pigweed plant response rating [1, 11]: 0; Plant response rating, Pigweed [1, 13]: 0; Plant response rating, Pigweed [1, 14]: 0; Plant response rating, Barnyardgrass [2, 13]: 0; Plant response rating, Barnyardgrass [2, 14]: 0; Morningglory plant response rating [3, 11]: 0; Plant response rating, Morningglory [3, 13]: 0; Plant response rating, Morningglory [3, 14]: 0; Velvetleaf plant response rating [6, 11]: 0; Plant response rating, Velvetleaf [6, 13]: 0; Plant response rating, Velvetleaf [6, 14]: 0; Wheat plant response rating [8, 11]: 0; Plant response rating, Wheat [8, 13]: 0; Plant response rating, Wheat [8, 14]: 0; Plant response rating, Foxtail, Giant [9, 13]: 0; Plant response rating, Foxtail, Giant [9, 14]: 0; Plant response rating, Corn (corn (Zea mays); [13]): 0; Plant response rating, Corn (corn (Zea mays); [14]): 0; Plant response rating, Crabgrass, Large [10, 13]: 0; Plant response rating, Crabgrass, Large [10, 14]: 0
CCc1nn(-c2cccc(C(F)(F)F)c2)nc1Cc1cccc(C(F)(F)F)c1 [Compound 143] | 100 | 20 | 50 | 90 | 75 | 40 | 80 | 0 | 40 | 80 | 100 | 40 | 50 | 30 | 80 | 100 | 100 | 100 | 100 | 30 | Plant response rating, Barnyardgrass [2, 16]: 90; Plant response rating, Morningglory [3, 11]: 50; Plant response rating, Morningglory [3, 15]: 0; Plant response rating, Morningglory [3, 16]: 0; Plant response rating, Velvetleaf [6, 11]: 40; Plant response rating, Velvetleaf [6, 15]: 0; Plant response rating, Velvetleaf [6, 16]: 20; Plant response rating, Wheat [8, 11]: 10; Plant response rating, Wheat [8, 15]: 0; Plant response rating, Wheat [8, 16]: 10; Plant response rating, Foxtail, Giant [9, 15]: 90; Plant response rating, Foxtail, Giant [9, 16]: 100; Plant response rating, Corn (corn (Zea mays); [15]): 0; Plant response rating, Corn (corn (Zea mays); [16]): 20; Plant response rating, Crabgrass, Large [10, 15]: 90; Plant response rating, Crabgrass, Large [10, 16]: 100
CCc1nn(-c2ccc(F)cc2)nc1Cc1cccc(C(F)(F)F)c1 [Compound 144] | 100 | 10 | 30 | 90 | 80 | 30 | 50 | 40 | 20 | 30 | 90 | 10 | 30 | 20 | 50 | 90 | 100 | 50 | 100 | 0 | Plant response rating, Barnyardgrass [2, 16]: 30; Plant response rating, Morningglory [3, 11]: 20; Plant response rating, Morningglory [3, 15]: 0; Plant response rating, Morningglory [3, 16]: 0; Plant response rating, Velvetleaf [6, 11]: 40; Plant response rating, Velvetleaf [6, 15]: 0; Plant response rating, Velvetleaf [6, 16]: 0; Plant response rating, Wheat [8, 11]: 0; Plant response rating, Wheat [8, 15]: 0; Plant response rating, Wheat [8, 16]: 0; Plant response rating, Foxtail, Giant [9, 15]: 50; Plant response rating, Foxtail, Giant [9, 16]: 100; Plant response rating, Corn (corn (Zea mays); [15]): 0; Plant response rating, Corn (corn (Zea mays); [16]): 0; Plant response rating, Crabgrass, Large [10, 15]: 50; Plant response rating, Crabgrass, Large [10, 16]: 100
CCCc1nn(-c2ccc(F)cc2)nc1Cc1cccc(C(F)(F)F)c1 [Compound 149] | 100 | – | 80 | 100 | 60 | 40 | 100 | 60 | 30 | – | 90 | – | 40 | 30 | – | 90 | 100 | 90 | 100 | 60 | Plant response rating, Barnyardgrass [2, 11]: 30; Plant response rating, Barnyardgrass [2, 16]: 90; Plant response rating, Morningglory [3, 11]: 90; Plant response rating, Morningglory [3, 15]: 10; Plant response rating, Morningglory [3, 16]: 30; Plant response rating, Velvetleaf [6, 11]: 60; Plant response rating, Velvetleaf [6, 15]: 20; Plant response rating, Velvetleaf [6, 16]: 50; Plant response rating, Wheat [8, 11]: 20; Plant response rating, Wheat [8, 15]: 0; Plant response rating, Wheat [8, 16]: 50; Plant response rating, Foxtail, Giant [9, 11]: 80; Plant response rating, Foxtail, Giant [9, 15]: 90; Plant response rating, Foxtail, Giant [9, 16]: 100; Plant response rating, Corn (corn (Zea mays); [11]): 30; Plant response rating, Corn (corn (Zea mays); [15]): 10; Plant response rating, Corn (corn (Zea mays); [16]): 20; Plant response rating, Crabgrass, Large [10, 11]: 80; Plant response rating, Crabgrass, Large [10, 15]: 90; Plant response rating, Crabgrass, Large [10, 16]: 100
